22 compounds from patent publication US11053226B2, “KRAS G12C inhibitors and methods of using the same” (Amgen Inc., priority 2018, dated 2021) can be followed below.

Sequence of GDP-bound KRAS protein (aa 1-169), containing both G12C and C118A amino acid substitutions (P01116 other isoform, or with tags, fused parts or gaps G12C/C118A): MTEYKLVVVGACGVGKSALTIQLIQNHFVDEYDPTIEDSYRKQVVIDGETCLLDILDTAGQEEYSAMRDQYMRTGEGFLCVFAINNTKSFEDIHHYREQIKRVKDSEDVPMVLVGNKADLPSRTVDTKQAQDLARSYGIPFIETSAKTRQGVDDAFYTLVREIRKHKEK

In the first assay the target is GDP-bound KRAS protein (aa 1-169), containing both G12C and C118A amino acid substitutions (Homo sapiens (Human), UniProt P01116, C118A/G12C). Briefly: Coupled Nucleotide Exchange Assay. The following applies: read-out: Coupled Exchange IC50 (2 h); 2 h compound pre-incubation. Format: biochemical. The protocol: (§1) For compounds in Table 9, the following assay conditions were employed:
Coupled Nucleotide Exchange Assay:
The assay plates were then read on a PerkinElmer EnVision Multilabel Reader, using AlphaScreen® technology, and data were analyzed using a 4-parameter logistic model to calculate IC50 values.
Turning to `C=CC(=O)N1CC(N(C)C(=O)Cn2cc(C(=O)N3CCc4c(ccnc4OC)C3)c3c(Cl)c(Cl)ccc32)C1` [Example 7], the IC50 was 0.45 µM.

Another assay has as its system Phosphorylation of ERK1/2 in A549 cells. Briefly: Phospho-ERK1/2 MSD Assay (A549). The assay is classed as cell-based. To be noted: Homo sapiens, A549, 4 h, read-out: pERK IC50 (4 h, A549), 4 h compound treatment.
Consider `C=CC(=O)N1CC(NC(=O)Cn2c(C)c(C(=O)N3CCN(c4ccc(C#N)cn4)C[C@H]3C)c3cc(Br)ccc32)C1` [Example 16], for which the IC50 is greater than 100 µM.
Consider `C=CC(=O)N1CC(NC(=O)Cn2c(C3CC3)c(C(=O)N3CCC(C)(C)C3)c3cc(Cl)cc(C)c32)C1` [Example 20], for which the concentration for half-maximal inhibition (IC50) is greater than 100 µM.
Turning to `C=CC(=O)N1CC(NC(=O)Cn2c(C)c(C(=O)N3C(C)COCC3C)c3cc(Br)cc(C)c32)C1` (centres unmarked) [Example 26], the IC50 is greater than 33.3 µM.
The same measure, in the same setting: for `C=CC(=O)N1CC(NC(=O)Cn2c(C)c(C(=O)N3CCN(c4ccc(C)cn4)CC3)c3cc(Br)ccc32)C1` [Example 29] the value was greater than 100 µM; for `C=CC(=O)N1CC(NC(=O)Cn2c(C3CC3)c(C(=O)N3CCOC(C)(c4ccccc4)C3)c3cc(Cl)cc(C)c32)C1` (centres unmarked) [Example 31], greater than 100 µM; for `C=CC(=O)N1CC(NC(=O)Cn2c(C)c(C(=O)N3CCN(c4ccc(Br)cn4)CC3)c3cc(Br)ccc32)C1` [Example 34], greater than 100 µM.
In the case of `C=CC(=O)N1CC(NC(=O)Cn2cc(C(=O)NCCOc3c(C)cccc3C)c3cc(Cl)cc(Cl)c32)C1` [Example 37], the IC50 is greater than 100 µM.
Still for that read-out and setting: the result for `C=CC(=O)N1CC(NC(=O)Cn2c(C)c(C(=O)N3CCN(c4ccc(C(F)(F)F)cn4)CC3)c3cc(Br)ccc32)C1` [Example 40] reads 44.6 µM; that for `C=CC(=O)N1CC(N2CCC(n3c(C)c(C(=O)N4CCc5c(cccc5OC)C4)c4cc(Br)ccc43)C2=O)C1` (centres unmarked) [Example 42], greater than 33.3 µM.
The same measure, in the same setting: for `C=CC(=O)N1CC(NC(=O)Cn2cc(C(=O)N3CCN(c4ccc(C)cn4)CC3)c3cc(Br)ccc32)C1` [Example 45] the value was greater than 100 µM.
Still for that read-out and setting: for `C=CC(=O)N1CC(NC(=O)Cn2c(C)c(C(=O)N3CCN(c4ccc([N+](=O)[O-])cn4)CC3)c3cc(Br)ccc32)C1` [Example 46] the value was greater than 100 µM; for `C=CC(=O)N1CC(N(C)C(=O)Cn2c(C)c(C(=O)N3CCN(c4ccc(C)cn4)CC3)c3cc(Br)ccc32)C1` [Example 47], greater than 100 µM.
`C=CC(=O)N1CC(NC(=O)Cn2cc(C(=O)N3CCN(c4cccc(C)n4)CC3)c3cc(Br)ccc32)C1` [Example 48]: the IC50 was greater than 33.3 µM.
On the same count and under the same terms, the result for `C=CC(=O)N1CC(N2CC[C@@H](n3c(C)c(C(=O)N4CCc5c(cccc5OC)C4)c4cc(Br)ccc43)C2=O)C1` [Example 50] reads greater than 33.3 µM; that for `C=CC(=O)N1CC(NC(=O)Cn2cc(C(=O)N3CCN(c4ncccc4C)CC3)c3cc(Br)ccc32)C1` [Example 61], greater than 33.3 µM.
`C=CC(=O)N1CC(NC(=O)Cn2c(C)c(C(=O)N3CCOC(C)(C)C3)c3cc(Br)ccc32)C1` [Example 64]: the IC50 is greater than 100 µM.
Still for that read-out and setting: for `C=CC(=O)N1CC(NC(=O)Cn2c(C)c(C(=O)C3CCc4ccccc4C3)c3cc(Br)ccc32)C1` (centres unmarked) [Example 65] the value was 3.47 µM; for `C=CC(=O)N1CC(NC(=O)Cn2cc(C(=O)NCCOc3c(C)cccc3C)c3cc(Br)ccc32)C1` [Example 68], greater than 100 µM; for `C=CC(=O)N1CC(N(CC)C(=O)Cn2c(C)c(C(=O)N3CCc4ccccc4C3C)c3cc(Br)cc(C)c32)C1` (centres unmarked) [Example 72], 63.4 µM.
The same measure, in the same setting: the result for `C=CC(=O)N1CC(C)(NC(=O)Cn2c(C)c(C(=O)N3CCc4c(cccc4OC)C3)c3cc(Br)ccc32)C1` [Example 77] reads 10.2 µM; that for `C=CC(=O)N1CC(NC(=O)Cn2cc(C(=O)N3CCN(c4cc(C)ccn4)CC3)c3cc(Br)ccc32)C1` [Example 79], greater than 100 µM.

Another assay concerns Phosphorylation of ERK1/2 in MIA PaCa-2 cells. Briefly: Phospho-ERK1/2 MSD Assay. The assay is classed as cell-based. The following applies: Homo sapiens, MIA PaCa-2, 4 h, read-out: pERK IC50 (4 h, MiaPaCa-2), 4 h compound treatment; MiaPaCa-2 cells. As to the method: as §1
Phospho-ERK1/2 MSD Assay:
Sixteen hours prior to compound treatment, MIA PaCa-2 cells were seeded in 96-well cell culture plates at a density of 25,000 cells/well and incubated at 37° C., 5% CO2. […] Following compound treatment, cells were stimulated with 10 ng/mL EGF (Roche 11376454001) for 10 min, washed with ice-cold Dulbecco's phosphate-buffered saline, no Ca^2+ or Mg^2+ (ThermoFisher Scientific 14190144), and then lysed in RIPA buffer (50 mM Tris-HCl pH 7.5, 1% Igepal, 0.5% sodium deoxycholate, 150 mM NaCl, and 0.5% sodium dodecyl sulfate) containing protease inhibitors (Roche 4693132001) and phosphatase inhibitors (Roche 4906837001). […] Assay plates were read on a Meso Scale Discovery Sector Imager 6000, and data were analyzed using a 4-parameter logistic model to calculate IC50 values.
`C=CC(=O)N1CC(N(C)C(=O)Cn2cc(C(=O)N3CCc4c(ccnc4OC)C3)c3c(Cl)c(Cl)ccc32)C1` [Example 7]: the IC50 was 1.33 µM.
Still for that read-out and setting: for `C=CC(=O)N1CC(NC(=O)Cn2c(C)c(C(=O)N3CCN(c4ccc(C#N)cn4)C[C@H]3C)c3cc(Br)ccc32)C1` [Example 16] the value was 1.79 µM.
Still for that read-out and setting: the result for `C=CC(=O)N1CC(NC(=O)Cn2c(C3CC3)c(C(=O)N3CCC(C)(C)C3)c3cc(Cl)cc(C)c32)C1` [Example 20] reads 1.94 µM.
The same measure, in the same setting: for `C=CC(=O)N1CC(NC(=O)Cn2c(C)c(C(=O)N3C(C)COCC3C)c3cc(Br)cc(C)c32)C1` (centres unmarked) [Example 26] the value was 2.48 µM; for `C=CC(=O)N1CC(NC(=O)Cn2c(C)c(C(=O)N3CCN(c4ccc(C)cn4)CC3)c3cc(Br)ccc32)C1` [Example 29], 2.66 µM; for `C=CC(=O)N1CC(NC(=O)Cn2c(C3CC3)c(C(=O)N3CCOC(C)(c4ccccc4)C3)c3cc(Cl)cc(C)c32)C1` (centres unmarked) [Example 31], 2.7 µM.
For the compound `C=CC(=O)N1CC(NC(=O)Cn2c(C)c(C(=O)N3CCN(c4ccc(Br)cn4)CC3)c3cc(Br)ccc32)C1` [Example 34], the IC50 was found to be 3.06 µM.
As to `C=CC(=O)N1CC(NC(=O)Cn2cc(C(=O)NCCOc3c(C)cccc3C)c3cc(Cl)cc(Cl)c32)C1` [Example 37], the IC50 amounted to 3.33 µM.
The same measure, in the same setting: the result for `C=CC(=O)N1CC(NC(=O)Cn2c(C)c(C(=O)N3CCN(c4ccc(C(F)(F)F)cn4)CC3)c3cc(Br)ccc32)C1` [Example 40] reads 3.42 µM; that for `C=CC(=O)N1CC(N2CCC(n3c(C)c(C(=O)N4CCc5c(cccc5OC)C4)c4cc(Br)ccc43)C2=O)C1` (centres unmarked) [Example 42], 3.78 µM; that for `C=CC(=O)N1CC(NC(=O)Cn2cc(C(=O)N3CCN(c4ccc(C)cn4)CC3)c3cc(Br)ccc32)C1` [Example 45], 3.96 µM.
The same measure, in the same setting: for `C=CC(=O)N1CC(NC(=O)Cn2c(C)c(C(=O)N3CCN(c4ccc([N+](=O)[O-])cn4)CC3)c3cc(Br)ccc32)C1` [Example 46] the value was 4.08 µM; for `C=CC(=O)N1CC(N(C)C(=O)Cn2c(C)c(C(=O)N3CCN(c4ccc(C)cn4)CC3)c3cc(Br)ccc32)C1` [Example 47], 4.16 µM; for `C=CC(=O)N1CC(NC(=O)Cn2cc(C(=O)N3CCN(c4cccc(C)n4)CC3)c3cc(Br)ccc32)C1` [Example 48], 4.56 µM.
The same measure, in the same setting: for `C=CC(=O)N1CC(N2CC[C@@H](n3c(C)c(C(=O)N4CCc5c(cccc5OC)C4)c4cc(Br)ccc43)C2=O)C1` [Example 50] the value was 4.81 µM.
As to `C=CC(=O)N1CC(NC(=O)Cn2cc(C(=O)N3CCN(c4ncccc4C)CC3)c3cc(Br)ccc32)C1` [Example 61], the IC50 is 7.06 µM.
As to `C=CC(=O)N1CC(NC(=O)Cn2c(C)c(C(=O)N3CCOC(C)(C)C3)c3cc(Br)ccc32)C1` [Example 64], the IC50 was determined as 7.74 µM.
On the same count and under the same terms, for `C=CC(=O)N1CC(NC(=O)Cn2c(C)c(C(=O)C3CCc4ccccc4C3)c3cc(Br)ccc32)C1` (centres unmarked) [Example 65] the value was 7.99 µM; for `C=CC(=O)N1CC(NC(=O)Cn2cc(C(=O)NCCOc3c(C)cccc3C)c3cc(Br)ccc32)C1` [Example 68], 8.81 µM; for `C=CC(=O)N1CC(N(CC)C(=O)Cn2c(C)c(C(=O)N3CCc4ccccc4C3C)c3cc(Br)cc(C)c32)C1` (centres unmarked) [Example 72], 10.6 µM.
On the same count and under the same terms, for `C=CC(=O)N1CC(C)(NC(=O)Cn2c(C)c(C(=O)N3CCc4c(cccc4OC)C3)c3cc(Br)ccc32)C1` [Example 77] the value was 11.6 µM; for `C=CC(=O)N1CC(NC(=O)Cn2cc(C(=O)N3CCN(c4cc(C)ccn4)CC3)c3cc(Br)ccc32)C1` [Example 79], 11.8 µM.

What is called IC50 is the concentration at which inhibition is half-maximal.
